The subject of one assay is A2780-DDDP. The assay can be described thus: Cytotoxicity, A2780-DDDP cells. The class given is cell-based, human. The settings on record: Homo sapiens, cisplatin-resistant ovarian cells, read-out: IC50, mean ± SEM. How it is done: (§1) All cell lines were acquired from the American Type Culture Collection (Manassas, Va., USA). Cells were maintained in RPMI 1640 medium (Mediatech) with 10% fetal bovine serum, 2 mM glutamine, and 100 U of penicillin and 100 μg of streptomycin per ml of medium (Sigma) at 37° C. in 5% CO2. To isolate HCC1437+BRCA1 cells, parental HCC1937 cells were transfected with pcDNA3.1 plasmid expressing full-length BRCA1 cDNA. Stable transfectant clones were selected and used for drug sensitivity assays. For stable transfection, cells at 30-40% confluence were incubated overnight with […] of plasmid DNA, using FUGENE® 6 transfectin reagent (Roche Molecular Biochemical, Monza, Italy) according to the manufacturer's instructions. Cells were then selected in puromycin (1 μg/ml) (Invitrogen life Technologies, La Jolla, Calif., USA.) After 20 to 30 days, viable puromycin-resistant colonies from HCC1937 transfections were expanded and screened. The clones that stably expressed […] and retained growth potential were assayed for BRCA1 expression by Western blot analysis. By Western blot analysis, we evaluated the restoration of BRCA1 expression in the puromycin-resistant cDNA/transfectant cells.
(§2) The MTT cytotoxicity assay was performed by incubating with MTT and monitoring the MTT formazan formed by viable cells with a microplate reader at a wavelength of 560 nm; the survival, ratio was determined using the formula: (Atest−Ablank)/(Acontrol−Ablank)×100%. The cytotoxicity was determined in 96-well plates using the semiautomatic fluorescence-based Digital Imaging Microscopy System (DIMSCAN). DIMSCAN uses digital imaging microscopy to quantify viable cells, which selectively accumulate FDA (fluorescein diacetate; Alfa Aesar, Ward Hill, Mass.). DIMSCAN is capable of measuring cytotoxicity over a 4 log dynamic range by quantifying total fluorescence per well (which is proportional to the number of viable cells) after elimination of the background fluorescence by digital thresholding and eosin Y (Mallinckrodt Baker, Center Valley, Pa.) quenching. Cells were seeded into 96-well plates in 100 μL of complete medium at 2,000 to 5,000 cells per well depending on cell line growth rate. After overnight incubation, test compound was added to each well at various concentrations in 50 μL of culture medium. After incubation with the drugs for 96 hours at 37° C., FDA (final concentration: […]) and eosin Y [final concentration: 0.1% (w/v)] were added to each well and the cells were incubated for an additional 20 minutes at 37° C. Total fluorescence per well was then measured using DIMSCAN, and the results were expressed as the ratio of the fluorescence in treated wells to the fluorescence in untreated wells (survival fraction).

Assay [1] has as its system DNA damage checkpoint proteins (ATM, CHK1, CHK2, γ-H2AX). The assay can be described thus: DNA damage checkpoint proteins by Western blot. It counts as cell-based, human. How it is done:
For subcellular fractionation, cells were trypsinized and washed with cold PBS solution twice. After centrifugation at 1,200 g for 5 min, cells were incubated in buffer (50 mM HEPES, pH 7.5, 150 mM NaCl, 1 mM EDTA) containing 0.2% NONIDET™ P-40 (NP-40), supplemented with protease inhibitors (5 μg/ml each of pepstatin, leupeptin, and aprotinin) and phosphatase inhibitors on ice for 5 min. Following centrifugation at 1,000 g for 5 min, the supernatant was collected (i.e., cytoplasmic fraction) and pellets were washed with the same buffer twice. The washed samples were extracted for 40 min on ice with fractionation buffer containing 0.5% NP-40 for nuclear fraction. All the samples were sonicated and clarified by centrifugation at 16,000 g for 15 min. Protein concentrations of all fractions were determined with Bio-Rad Protein Assay (Bio-Rad Laboratories, Hercules, Calif.). Immunoblotting was performed as described previously (21,22). Briefly, equal amounts of boiled protein samples were subjected to SDS-polyacrylamide gel electrophoresis (PAGE) and transferred onto nitrocellulose membranes (Bio-Rad Laboratories). Membranes were blocked for 1 hour in 3% BSA in Tris buffered saline containing 0.05% Tween 20 (TBST) and incubated for 1 hour with primary antibody (1:500 or 1:1000) diluted in TBST containing 1% BSA. After two washes with TBST, membranes were incubated for 1 hour with horseradish peroxidase-conjugated secondary Abs (1:3000 dilution) at room temperature. The immunoblots were visualized on film with the West-Q chemi-luminescence kit (GenDEPOT, Barker, Tex.).

For assay [2], the system named is multiple human cancer cell lines. As to conditions: in most cases; cited from earlier work.
The subject of a further assay is TOV112D. As to the kind of experiment: Cytotoxicity, TOV112D cells. The settings on record: Homo sapiens, read-out: IC50, mean ± SEM. The class given is cell-based, human. Here is the method: as §1, §2
A further assay addresses T1, PARP1 (Homo sapiens, UniProt P09874).
T1 construct: endogenous in cells; host or cells: HCC1937, HCC1937+BRCA1, UWB1.289, UWB1.289+BRCA1 (human breast / ovarian cancer lines)
As to the kind of experiment: PARP1 activity in lysates of treated cells (chemiluminescent assay kit). The class given is cell-based. Here is the method: The PARP1 activity was determined using the PARP1 Chemiluminscent Assay Kit (BPS Bioscience, San Diego) according to the manufacturer's protocol. Briefly, the ribosylation reaction was carried out with activated DNA in PARP assay buffer using test inhibitor, positive control, substrate control and blank reactions, for 1 hour at 25° C. Detection was by streptavidin-HRP with chemiluminescent substrate A and B read in a luminometer.

A further assay deals with HCC1937 tumors. The assay can be described thus: Orthotopic tumor explant model, HCC1937. It counts as in vivo. The settings on record: HCC1937 tumors in mammary fat pads of NSG mice, daily oral 400 mg/kg, 28 days. Here is the method:
Experiments in mice were conducted under a protocol approved by the IACUC of City of Hope. Because HCC1937 and HCC1937+BRCA1 cells from slow-growing tumors, they were implanted using MATRIGEL™ (Becton-Dickinson Biosciences). To establish tumors 4×10^6 cells in 200 μL serum-free medium containing 50% MATRIGEL™ were injected into the mammary fat pads around the inguinal area of a pair of 8 week old female NSG mice. Once the initial tenors reached 13 mm in diameter, they were dissected out minced into 3 mm pieces and implanted into the inguinal area of the mammary fat pads of the experimental mice Tumors were measured over a 28-day period, and for each time point, the student t-test was used to determine the statistical significance between daily gavage with 400 mg/kg COH29 in 30% solutol and corresponding vehicle control. The p value less than 0.05 (2 sides) was considered to indicate statistical significance

The subject of another assay is A2780. The assay can be described thus: Cytotoxicity, A2780 cells. The class given is cell-based, human. As to conditions: Homo sapiens; A2780, cisplatin-sensitive ovarian cells; read-out: IC50, mean ± SEM. How it is done:
as §1, §2

A further assay relates to MDA-MB-231. The assay can be described thus: Cytotoxicity, MDA-MB-231 cells. It counts as cell-based, human. As to conditions: Homo sapiens; MDA-MB-231, TNBC; read-out: IC50, mean ± SEM. How it is done: as §1, §2

T1 sequence (P09874 whole entry): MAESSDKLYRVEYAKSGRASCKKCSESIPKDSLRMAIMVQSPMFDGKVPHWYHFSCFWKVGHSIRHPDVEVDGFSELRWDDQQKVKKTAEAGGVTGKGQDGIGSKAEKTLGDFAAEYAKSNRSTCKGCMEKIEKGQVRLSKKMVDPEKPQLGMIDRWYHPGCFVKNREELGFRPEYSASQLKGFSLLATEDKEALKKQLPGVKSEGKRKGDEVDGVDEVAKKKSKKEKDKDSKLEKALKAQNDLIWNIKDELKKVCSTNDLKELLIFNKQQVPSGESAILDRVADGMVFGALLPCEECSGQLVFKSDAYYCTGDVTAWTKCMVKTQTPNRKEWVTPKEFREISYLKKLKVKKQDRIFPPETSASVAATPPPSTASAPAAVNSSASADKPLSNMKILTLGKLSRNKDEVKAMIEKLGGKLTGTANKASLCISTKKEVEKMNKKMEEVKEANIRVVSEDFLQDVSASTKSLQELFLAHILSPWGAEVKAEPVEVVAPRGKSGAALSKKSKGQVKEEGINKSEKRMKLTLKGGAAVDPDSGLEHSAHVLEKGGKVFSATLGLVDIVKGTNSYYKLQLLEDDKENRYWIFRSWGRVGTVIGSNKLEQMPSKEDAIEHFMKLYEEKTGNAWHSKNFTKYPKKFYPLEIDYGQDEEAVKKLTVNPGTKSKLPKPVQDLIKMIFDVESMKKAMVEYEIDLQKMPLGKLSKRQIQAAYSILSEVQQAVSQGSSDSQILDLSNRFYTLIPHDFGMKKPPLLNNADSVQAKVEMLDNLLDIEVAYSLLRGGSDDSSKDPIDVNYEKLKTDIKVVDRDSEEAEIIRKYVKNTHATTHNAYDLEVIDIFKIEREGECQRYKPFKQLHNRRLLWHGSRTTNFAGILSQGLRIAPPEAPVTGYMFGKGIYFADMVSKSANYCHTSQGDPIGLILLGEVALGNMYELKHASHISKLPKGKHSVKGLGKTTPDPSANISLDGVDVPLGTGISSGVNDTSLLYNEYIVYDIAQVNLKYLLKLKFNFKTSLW

Take `O=C(Nc1nc(-c2ccc(O)c(O)c2)c(-c2ccccc2)s1)c1ccc(O)c(O)c1` [COH29]: the IC50 with A2780-DDDP was 6.47 ± 1.41 µM; in assay [2] it was less than 10 µM; in the assay with TOV112D, 16 ± 2.08 µM; in the assay on A2780 it was 4.67 ± 1.64 µM; with MDA-MB-231 it was 9.7 ± 1.52 µM. Besides, in assay [1] (MCF7 and MCF-7 p53−/− cells), the γ-H2AX level result is listed as “increase in the γ-H2AX level”. For the same molecule, the “DNA damage checkpoint activation (phosphorylation of ATM, CHK1, CHK2)” value in assay [1] (MCF7 cells, wild-type p53) is given as “activated the DNA damage checkpoint”. Further, the “DNA damage checkpoint proteins (ATM, CHK1, CHK2) modification” value in assay [1] (MCF-7 p53−/− cells) is given as “similarly modified”. For the same molecule, the “PARP1 activity, treated cells” value on PARP1 (HCC1937+BRCA1, 24 h, untreated 2336878 cps) stood at 2041097 cps; on PARP1 (HCC1937, 24 h, untreated 726177 cps), 427851 cps; at PARP1 (UWB1.289+BRCA1, 8 h, untreated printed 145769 cps) it was 2129944 cps; on PARP1 (UWB1.289, 8 h, untreated printed 113559 cps), 774611 cps. Also, the “growth of tumors compared to vehicle” value in the assay with HCC1937 tumors was “significantly (p=0.0007) suppressed”.

Values taken from patent publication US10201530B2, “Treatment of BRCA1-defective cancer or resistant cancers” (City of Hope, priority 2014, dated 2019).
